The text below walks through data of patent US11040959B2, “Diprovocims: a new and potent class of TLR agonists” (The Scripps Research Institute, priority 2016, dated 2021).

Where two headings read alike, the source gives them in different places. Bounds are passed on as bounds.

Common to all, as to type: cell-based
For test [1], the system named is differentiated human THP-1 cells. Description: stimulated release of TNF-α from differentiated human THP-1 cells (ELISA, dose-response). The note with it: for activity in stimulating TNF-α release from human THP-1 cells (in words): tested up to 5 μM where stated. Summed up:
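Human THP-1 cells were PMA-differentiated toward macrophages, and stimulated TNF-α release was measured by ELISA. EC50 values were taken from dose-response curves.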
In general terms: An ELISA detects its analyte on a solid surface through an enzyme-linked reagent.

Another test has as its system mouse macrophages. The experiment in a line: stimulated release of TNF-α from mouse macrophages. Summed up:
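EC50 derived from dose-response curves for stimulated TNF-α release from mouse macrophages.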

Test [2] deals with TNF-α release stimulated by diprovocim-1 (3). The experiment in a line: antagonist test: inhibition of the activity of diprovocim-1 (3) on co-administration. The note with it: co-administered at 5 μM.
[3] abbreviates: Homo sapiens, THP-1, running text, read-out: EC50, stimulated release of TNF-α from differentiated human THP-1 cells.
Where [4] appears, read: Mus musculus, Macrophage, read-out: EC50, stimulated release of TNF-α from mouse macrophages.
Setting [5] is: Homo sapiens, THP-1, table of 133-139 (two lipid side chains), human THP-1 cells, read-out: EC50 (nM) (THP-1).
Setting [6] is: Macrophage, table of 133-139 (two lipid side chains), mouse macrophages, read-out: EC50 (nM) (mouse).
[7] abbreviates: table of 125-132 (one lipid side chain, R and S), human THP-1 cells, read-out: EC50 (nM) (THP-1).
[8] abbreviates: Homo sapiens, THP-1, table of 125-132 (one lipid side chain, R and S), human THP-1 cells, read-out: EC50 (nM) (THP-1).
The mark [9] stands for this setting: Macrophage, table of 125-132 (one lipid side chain, R and S), mouse macrophages, read-out: EC50 (nM) (mouse).

In general, EC50 refers to the concentration that produces a half-maximal response. For `O=C(NCCc1ccccc1)[C@@H]1CN(C(=O)c2ccc(C(=O)N3C[C@@H](C(=O)NCCc4ccccc4)[C@H](C(=O)NCCc4ccccc4)C3)cc2)C[C@H]1C(=O)NCCc1ccccc1` [Compound 8, trans,trans-1,1′-Terephthaloylbis-(N^3, N^4-diphenethylpyrrolidine-3,4-dicarboxamide)], the EC50 (in test [1] (setting [3]); in the test on mouse macrophages (setting [4])) was > 5000 nM each time. In addition, the “activity in stimulating TNF-α release from human THP-1 cells (in words)” value in test [1] is “inactive”. Also, in test [2], the “antagonist activity, inhibiting the activity of diprovocim-1 (3)” value is given as “incapable of acting as an antagonist”.

Take `CCCCNC(=O)[C@@H]1CN(C(=O)c2ccc(C(=O)N3C[C@@H](C(=O)N[C@H]4C[C@@H]4c4ccccc4)[C@H](C(=O)N[C@H]4C[C@@H]4c4ccccc4)C3)cc2)C[C@H]1C(=O)NCCCC` [Compound 139, (3S,4S)-1-(4-((3S,4S)-3,4-Bis(((1S,2R)-2-phenylcyclopropyl)carbamoyl)pyrrolidine-1-carbonyl)benzoyl)-N^3,N^4-dibutylpyrrolidine-3,4-dicarboxamide]: the values for the EC50 (in test [1] (setting [5]); in the test on mouse macrophages (setting [6])) were 50 nM and 360 nM, respectively.

Regarding `CCCCCCCCCCCCCCCCNC(=O)C1CCN(C(=O)c2ccc(C(=O)N3C[C@@H](C(=O)N[C@H]4C[C@@H]4c4ccccc4)[C@H](C(=O)N[C@H]4C[C@@H]4c4ccccc4)C3)cc2)C1` (stereo in doubt) [Compound 129, (3S,4S)-1-(4-((S)-3-(Hexadecylcarbamoyl)-pyrrolidine-1-carbonyl)benzoyl)—N^3,N^4-bis((1S,2R)-2-phenylcyclopropyl)pyrrolidine-3,4-dicarboxamide], the EC50 in test [1] (setting [7]) was 5 nM; in the test with mouse macrophages (table of 125-132 (one lipid side chain, R and S), mouse macrophages, read-out: EC50 (nM) (mouse)), > 5000 nM.

In the case of `CCCCCCNC(=O)[C@@H]1CN(C(=O)c2ccc(C(=O)N3C[C@@H](C(=O)N[C@H]4C[C@@H]4c4ccccc4)[C@H](C(=O)N[C@H]4C[C@@H]4c4ccccc4)C3)cc2)C[C@H]1C(=O)NCCCCCC` [Compound 138, (3S,4S)-1-(4-((3S,4S)-3,4-Bis(((1S,2R)-2-phenylcyclopropyl)carbamoyl)-pyrrolidine-1-carbonyl)benzoyl)-N^3,N^4-dihexylpyrrolidine-3,4-dicarboxamide], the half-maximal effective concentration (EC50) in test [1] (setting [3]) was determined as 0.18 nM; in test [1] (setting [5]), 0.18 nM; in the test with mouse macrophages (setting [6]) it was 4 nM; in the test on mouse macrophages (setting [4]), 4 nM. The “fold less active/potent than diprovocim-1 (3)” value in test [1] (human THP-1 cells) came to 2 fold. Also, the “potency differential human THP-1 cells versus mouse macrophages” value in test [1] (ratio of mouse to human potency) is listed as 20 fold. In the test on mouse macrophages (mouse macrophages), the “fold less potent/effective than diprovocim-1” value was found to be 4 fold.

Regarding `CCCCCCCCCCCCNC(=O)[C@H]1CCN(C(=O)c2ccc(C(=O)N3C[C@@H](C(=O)N[C@H]4C[C@@H]4c4ccccc4)[C@H](C(=O)N[C@H]4C[C@@H]4c4ccccc4)C3)cc2)C1` [Compound 131, (3S,4S)-1-(4-((S)-3-(Dodecylcarbamoyl)-pyrrolidine-1-carbonyl)benzoyl)—N^3,N^4-bis((1S,2R)-2-phenylcyclopropyl)pyrrolidine-3,4-dicarboxamide], the EC50 in test [1] (setting [8]) is 4 nM; in the test on mouse macrophages (setting [9]), 1000 nM.

Consider `O=C(COc1cc(C(=O)N2C[C@@H](C(=O)N[C@H]3C[C@@H]3c3ccccc3)[C@H](C(=O)N[C@H]3C[C@@H]3c3ccccc3)C2)ccc1C(=O)N1C[C@@H](C(=O)N[C@H]2C[C@@H]2c2ccccc2)[C@H](C(=O)N[C@H]2C[C@@H]2c2ccccc2)C1)NCC(=O)N[C@@H](CO)C(=O)O` [Compound 151, (2-(2,5-Bis((3S,4S)-3,4-bis(((1S,2R)-2-phenylcyclopropyl)carbamoyl)pyrrolidine-1-carbonyl)phenoxy)acetyl)glycyl-L-serine], for which the EC50 in test [1] (table of functionalized derivatives 147-151, human THP-1 cells, read-out: EC50 (nM) (THP-1)) is 0.24 nM; in the test on mouse macrophages (Macrophage, table of functionalized derivatives 147-151, mouse macrophages, read-out: EC50 (nM) (mouse)) it was 270 nM.

For the molecule `O=C(NCCc1ccc(F)cc1)[C@@H]1CN(C(=O)c2ccc(C(=O)N3C[C@@H](C(=O)N[C@H]4C[C@@H]4c4ccccc4)[C@H](C(=O)N[C@H]4C[C@@H]4c4ccccc4)C3)cc2)C[C@H]1C(=O)NCCc1ccc(F)cc1` [Compound 114, (3S,4S)-1-(4-((3S,4S)-3,4-Bis(((1S,2R)-2-phenylcyclopropyl)carbamoyl)-pyrrolidine-1-carbonyl)benzoyl)—N^3,N^4-bis(4-fluorophenethyl)-pyrrolidine-3,4-dicarboxamide], the “activity in stimulating TNF-α release from human THP-1 cells (in words)” value in test [1] is given as “active”. The “activity in stimulating TNF-α release from mouse macrophages (in words)” value with mouse macrophages (tested up to 5 μM where stated) was “active”.

On to `CCCCCCCCCCCCNC(=O)[C@@H]1CN(C(=O)c2ccc(C(=O)N3C[C@@H](C(=O)N[C@H]4C[C@@H]4c4ccccc4)[C@H](C(=O)N[C@H]4C[C@@H]4c4ccccc4)C3)cc2)C[C@H]1C(=O)NCCCCCCCCCCCC` [Compound 135, (3S,4S)-1-(4-((3S,4S)-3,4-Bis(((1S,2R)-2-phenylcyclopropyl)carbamoyl)pyrrolidine-1-carbonyl)benzoyl)-N^3,N^4-didodecylpyrrolidine-3,4-dicarboxamide], for which the concentration for a half-maximal effect (EC50) was 1 nM in test [1] (setting [5]) and 1000 nM in the test with mouse macrophages (setting [6]).

With `O=C(N[C@H]1C[C@@H]1c1ccccc1)[C@@H]1CN(C(=O)c2ccc(C(=O)N3C[C@@H](C(=O)N[C@H]4C[C@@H]4c4ccccc4)[C@H](C(=O)N[C@H]4C[C@@H]4c4ccccc4)C3)nc2)C[C@H]1C(=O)N[C@H]1C[C@@H]1c1ccccc1` [Compound 51, (3S,3′S,4S,4′S)-1,1′-(Pyridine-2,5-dicarbonyl)-bis(N^3,N^4-bis((1S,2R)-2-phenylcyclopropyl)-pyrrolidine-3,4-dicarboxamide)], the concentration for a half-maximal effect (EC50) in test [1] (Homo sapiens, THP-1, Table 3, TNF-α release from human THP-1 cells, read-out: EC50 (nM) (THP-1)) is 4 nM; in the test on mouse macrophages (Macrophage, Table 3, TNF-α release from mouse macrophages, read-out: EC50 (nM) (mouse)), 270 nM.

Regarding `CCCCCCCCCCCCCCCCNC(=O)[C@@H]1CCN(C(=O)c2ccc(C(=O)N3C[C@@H](C(=O)N[C@H]4C[C@@H]4c4ccccc4)[C@H](C(=O)N[C@H]4C[C@@H]4c4ccccc4)C3)cc2)C1` [Compound 125, (3S,4S)-1-(4-((R)-3-(Hexadecylcarbamoyl)-pyrrolidine-1-carbonyl)benzoyl)-N^3,N^4-bis((1S,2R)-2-phenylcyclopropyl)pyrrolidine-3,4-dicarboxamide], the results for the EC50 (in test [1] (setting [7]); in the test on mouse macrophages (setting [9])) were 15 nM and > 5000 nM, respectively.

Turning to `CCCCCCCCNC(=O)[C@@H]1CN(C(=O)c2ccc(C(=O)N3C[C@@H](C(=O)NCCCCCCCC)[C@H](C(=O)NCCCCCCCC)C3)cc2)C[C@H]1C(=O)NCCCCCCCC` [Compound 144, (3S,3′S,4S,4′S)-1,1′-Terephthaloylbis(N^3,N^4-dioctylpyrrolidine-3,4-dicarboxamide)], the 50% effective concentration (EC50) in test [1] (Homo sapiens, THP-1, table of 140-146 (four lipid side chains), human THP-1 cells, read-out: EC50 (nM) (THP-1)) was > 5000 nM; with mouse macrophages (Macrophage, table of 140-146 (four lipid side chains), mouse macrophages, read-out: EC50 (nM) (mouse)), > 5000 nM.

Take `CCCCCCCCCCNC(=O)[C@@H]1CCN(C(=O)c2ccc(C(=O)N3C[C@@H](C(=O)N[C@H]4C[C@@H]4c4ccccc4)[C@H](C(=O)N[C@H]4C[C@@H]4c4ccccc4)C3)cc2)C1` [Compound 128, (3S,4S)-1-(4-((R)-3-(Decylcarbamoyl)pyrrolidine-1-carbonyl)benzoyl)—N^3,N^4-bis((1S,2R)-2-phenyl-cyclopropyl)pyrrolidine-3,4-dicarboxamide]: the EC50 amounted to 210 nM in test [1] (setting [8]) and 2400 nM with mouse macrophages (setting [9]).
